# Reference: patent publication US20040133008A1, “Amide compounds” (FUJISAWA PHARMACEUTICAL CO., LTD., priority 2002, published 2004)
# Assays:
# Apo B secretion = experiment: Measurement of Inhibition of Apo B Secretion; assay type: cell-based; details: Homo sapiens; HepG2 cells, 10^−8 M test compound, 15-hour incubation, Apo B in media by ELISA, 0.1% DMSO treated cells as controls
# Experimental: Test 1: Measurement of Inhibition of Apo B Secretion
# HepG2 cells were seeded in Eagles medium containing 10% fetal calf serum (FCS) at a density of 30000 cells/well in 96-well plates and allowed to grow for 3 days before treatment. At this time, the medium was replaced with fresh medium containing 0.1% dimethyl sulfoxide (DMSO) and the indicated concentrations of a test compound. After 15-hour incubation, the amount of Apo B and Apo AI accumulated in the media was determined by ELISA.
# The assay was carried out at ambient temperature. A flat bottomed micro ELISA plate (manufactured by Nunc) was coated with an anti Apo B monoclonal antibody solution ([…] in 0.05% carbonate buffer, pH 9.6) by adding the antibody solution at a volume of 100 μl per well. After 1-hour incubation on a plate mixer, the unbound materials were removed by washing the well 3 times with a washing buffer (phosphate buffered saline, pH 7.2 containing 0.1% bovine serum albumin and 0.05% Tween-20). Then 20 μl of […] and 100 μl of a solution of peroxidase coupled anti Apo B antibody were added. After 1-hour incubation on a plate mixer, washing was performed 3 times to remove the unbound materials. A freshly prepared substrate solution (2.5 mg/ml ortho-phenylene diamine and 0.018% H2O2 in 0.11 M Na2HPO4-0.044 M sodium citrate buffer, pH 5.4) at a volume of 200 μl was then added to each well. After 20-minute incubation, the enzyme reaction was terminated by adding 50 μl of 0.5 M sulfuric acid. Absorbance of each well was determined at 490 nm using a microplate reader. Apo B concentration was calculated from a standard curve generated from purified Apo B standard that was run in parallel in the same plate. Inhibition of Apo B secretion by the test compound was calculated taking 0.1% DMSO treated cells as controls.
# Measurement of Apo AI was performed similar to that of Apo B, except for diluting the sample 11-fold with a dilution buffer (phosphate buffered saline, pH 7.2 containing 0.5% bovine serum albumin and 0.05% Tween-20).
# Apo B secretion inhibitors are identified as compounds that decrease Apo B secretion without affecting the secretion of Apo AI.
# ddY-mice = experiment: Lipid Lowering Effect on ddY-Mice; assay type: in vivo; details: male ddY-mice, dose 0.32 mg/kg orally in olive oil, plasma TG 2 hours after administration; (TG increase in drug treated group/TG increase in control group)×100
# Experimental: Test 2: Lipid Lowering Effect on ddY-Mice
# Male ddY-mice were housed in temperature- and humidity-controlled rooms and fed with laboratory chow. The animals were randomized according to their body weight and food was deprived about 16 hours before experiment. Baseline blood sample was collected from the retro orbital venous plexus then the animals were orally dosed with drugs in olive oil (10 ml/kg). For control group, 10 ml/kg of olive oil was loaded orally. Blood samples were drawn at 2 hours after drug administration for the measurement of triglyceride (TG) elevation. Plasma TG was determined by conventional enzyme method (The triglyceride E-test Wako).
# Lipid lowering effects were shown in percent of the TG increase in drug treated group, relative to the TG increase in control group.
# Lipid lowering effect(%)=(TG increase in drug treated group/TG increase in control group)×100
Structure (SMILES),inhibition at 0.01 µM (Apo B secretion),TG increase relative to control (%) (ddY-mice)
"Cc1ccc(C(=O)Nc2ccc(NCCc3ccccn3)cc2)c(N(C)C)c1 [Example 42, 2-(Dimethylamino)-4-methyl-N-(4-{[2-(2-pyridinyl)ethyl]amino}phenyl)benzamide]",85.8%,33%
"CC1CCN(c2ncccc2C(=O)Nc2ccc(NCCc3ccccn3)cc2)CC1 [Example 54, 2-(4-Methyl-1-piperidinyl)-N-(4-{[2-(2-pyridinyl)ethyl]amino}phenyl)nicotinamide]",86.3%,28%
"Cc1ccc(C(=O)Nc2ccc(NCCn3cccn3)cc2)c(N(C)C)c1 [Example 183, 2-(dimethylamino)-4-methyl-N-(4-{[2-(1H-pyrazol-1-yl)ethyl]amino}phenyl)benzamide]",81.2%,27%
"Cc1ccc(C(=O)Nc2ccc(NC(=O)Cn3cccn3)cc2)c(N2CCC(C)CC2)n1 [Example 193, 6-methyl-2-(4-methyl-1-piperidinyl)-N-{4-[(1H-pyrazol-1-ylacetyl)amino]phenyl}nicotinamide]",71.5%,–
"Cc1ccc(C(=O)Nc2ccc(NC(=O)C(C)c3ccccn3)cc2)c(N2CCC(C)CC2)n1 (centres unmarked) [Example 415, 6-Methyl-2-(4-methyl-1-piperidinyl)-N-(4-{[2-(2-pyridinyl)propanoyl]amino}phenyl)nicotinamide]",76.2%,–
"CN(C)c1cc(Cl)ccc1C(=O)Nc1ccc(NCCc2cccc(N)n2)cc1 [Example 435, N-(4-{[2-(6-Amino-2-pyridinyl)ethyl]amino}phenyl)-4-chloro-2-(dimethylamino)benzamide]",85.9%,52%
"CCc1ccc(C(=O)Nc2ccc(NCCn3cccn3)cc2)c(N(C)C)c1 [Example 473, 2-(Dimethylamino)-4-ethyl-N-(4-{[2-(1H-pyrazol-1-yl)ethyl]amino}phenyl)benzamide]",75.7%,–
